From patent US8951508B2, “Compound” (DSM IP Assets B.V., priority 2009, dated 2015)

What was measured:
[1] = Comparative solubility of BMDBM in 1:1 C12-15 alkyl benzoate/UV-filter mixtures, HPLC of supernatant after 1 month at RT; settings: for effect on solubility of BMDBM in C12-15 alkyl benzoate: conclusion in words
Procedure: The solubility of BMDBM in a 1:1 (w/w) mixture of C12-15 alkyl benzoate and a polymeric, respectively a solid UV-filter (i.e. Polysilicone-15 (P-15), HY-B1, HY-B2, HY-AB, BEMT or Ethylhexyltriazone (EHT)) was determined by mixing 200 mg of BMDBM with 1000 mg of the 1:1 mixture and measuring the BMDBM concentration of the supernatant by HPLC after a storage period of 1 month at RT. Where necessary the mixture was centrifuged in order to obtain a clear supernatant.

[2] = Reduction of solvent necessary to dissolve solid UV-filter; format: physicochemical
[3] = e.g. C12-15 alkyl benzoate or diisopropyl sebaceate; typical value; cited from earlier work

| Compound | Solubility of BMDBM in C12-15 alkyl benzoate/UV-filter 1:1 ([1]; 200 mg BMDBM in 1000 mg 1:1 mixture, 1 month at RT, label = UV-filter in mixture) [wt.-%] | Solubility of BMDBM: Δ solubility ([1]; 1:1 mixture versus C12-15 alkyl benzoate, label = UV-filter in mixture) [wt.-%] | effect on solubility of BMDBM in C12-15 alkyl benzoate [1] | Solubility of BMDBM: Δ solubility related to cosmetic solvent ([1]; label = UV-filter in mixture) [wt.-%] | amount of 1:1 (w/w) mixture of PG-UVB1 and diisopropyl sebacate needed to dissolve 0.5 g BMDBM [2] [g] | amount of 1:1 (w/w) mixture of PG-UVB2 and C12-15 alkyl benzoate necessary to dissolve 0.5 g BMDBM [2] [g] | amount of C12-15 alkyl benzoate necessary to solubilize 0.5 g BMDBM [2] [g] | amount of diisopropyl sebacate necessary to solubilize 0.5 g BMDBM [2] [g] | reduction of the cosmetic solvent necessary to dissolve BMDBM ([2]; 1:1 (w/w) PG-UVB1/diisopropyl sebacate versus diisopropyl sebacate) [%] | reduction of the cosmetic solvent necessary to dissolve BMDBM ([2]; 1:1 (w/w) PG-UVB2/C12-15 alkyl benzoate versus C12-15 alkyl benzoate) [%] | solubility in the conventional cosmetic oils [3] | Solubility of BMDBM in C12-15 alkyl benzoate ([1]; reference value without UV-filter, repeated per column) [wt.-%] |
| --- | --- | --- | --- | --- | --- | --- | --- | --- | --- | --- | --- | --- |
| CCCCC(CC)COc1ccc(-c2nc(-c3ccc(OC)cc3)nc(-c3ccc(OCC(CC)CCCC)cc3O)n2)c(O)c1 (stereo not shown) [BEMT, bis-ethylhexyloxyphenol methoxyphenyl triazine] | 3 | −11 | neither be enhanced | −4 |  |  |  |  |  |  |  |  |
| COc1ccc(C(=O)CC(=O)c2ccc(C(C)(C)C)cc2)cc1 [BMDBM, butyl methoxydibenzoylmethane] |  |  |  |  | 1.4 | 1.5 | 3.0 | 2.0 | 65 | 75 | less than 20% | 14 |
| CCCCC(CC)COC(=O)c1ccc(Nc2nc(Nc3ccc(C(=O)OCC(CC)CCCC)cc3)nc(Nc3ccc(C(=O)OCC(CC)CCCC)cc3)n2)cc1 (stereo not shown) [EHT, Ethylhexyltriazone] |  |  | neither be enhanced |  |  |  |  |  |  |  |  |  |
